Experimental data as given in patent publication US11279733B2, “Peptide antibiotics” (priority 2017, dated 2022).
Values after ≈ are worked out from the molar mass of the structure shown. Where two headings read alike, the source gives them in different places. Positions of bridges follow the written chain, without caps; N, C: chain ends. Non-standard residues stand in square brackets, D forms with d. Residues, ends and D or L forms follow the SMILES beside them. *: point of attachment. Isonicotinoyl(2-Ph) = O=C(c1ccnc(-c2ccccc2)c1)*; Decanoyl(3R-OH) = CCCCCCC[C@@H](O)CC(=O)*; Phe(4-NH2) = Nc1ccc(C[C@H](N)C(=O)O)cc1; X1 = CCCCCCCN1CCC(C(=O)*)CC1; dDab = NCC[C@@H](N)C(=O)O; Dab = NCC[C@H](N)C(=O)O; Dap = NC[C@H](N)C(=O)O

Legend:
in vitro [1] = settings: human
Protocol: Cytotoxicity of the synthesised peptides was evaluated by comparison with commercially available colistin (polymyxin E), polymyxin B (Sigma chemical Co., St. Louis, Mo., U.S.A.) and synthetic octapeptin C4 by conducting lactate dehydrogenase (LDH) assay. CC50 values calculated based on curve fitting of dose dependent inhibition of cell growth represented the cytotoxicity of the peptide. Human kidney 2 (HK2) cells were seeded as 2000 cells per well in a 384 well cell culture plate in a final volume of 20 μL in DMEM/F12 medium (Invitrogen #11330057), in which 10% of FBS was added. Cells were incubated for 24 hours at 37° C., 5% CO2 to allow cells to attach to the plates. Similar conditions were employed for HEK293 and HepG2 cytotoxicity assays.
Cytotoxicity to HEK293 and HepG2 cells was determined using the resazurin assay (McMillian, M. K.; Li, L.; Parker, J. B.; Patel, L.; Zhong, Z.; Gunnett, J. W.; Powers, W. J.; Johnson, M. D. An improved resazurin-based cytotoxicity assay for hepatic cells; Cell Biol. Toxicol. 2002, 18, 157-173; O'Brien, J.; Wilson, I.; Orton, T.; Pognan, F. Investigation of the Alamar Blue (resazurin) fluorescent dye for the assessment of mammalian cell cytotoxicity. Eur. J. Biochem. 2000, 267, 5421-5426). In brief, HEK293 and HepG2 cells were seeded at 4000 cells/well in black-wall, clear-bottom 384-well plates (Corning, Australia) and incubated for 24 h at 37° C., 5% CO2. Compounds were then added into each well. After 24 h incubation, 5 μM resazurin was added per well and incubated at 37° C. for 2 h. Fluorescence intensity was then read using a Polarstar Omega with excitation/emission 560/590. The data was then analyzed using GraphPad Prism 6 software. CC50 values were determined using GraphPad Prism 6 software (Inc. La Jolla, Calif.).

in vitro [2] = settings: human; remark: listed apart in the source
Method in brief: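 Fluorescence read-out (excitation 560, emission 590) after a 2 h, 37 °C incubation with 5 μM resazurin, following 24 h compound treatment of cells plated at 4000 per well. CC50 values come from fitting dose–response curves of growth inhibition.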

in vitro [3] = settings: human; remark: listed apart in the source
Method in brief: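 HK2 cells were seeded at 2000 per well in DMEM/F12 with 10% FBS and left to attach for 24 h at 37 °C, 5% CO2. They were then exposed for 24 h to 3-fold peptide dilutions starting from 600 μM solutions in quadruplicate. LDH release was read at 450 nm, and CC50 was fitted from dose-response curves.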

K. pneumoniae ATCC 13883 = settings: ATCC 13883
Method in brief: (§1)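 Mid-log cultures grown in Mueller Hinton broth at 37° C were tested by 2-fold broth microdilution at 5×10^5 CFU/mL final. Compounds were dissolved in water and tested over a final range of 32 to 0.015 μg/mL.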

P. aeruginosa ATCC 27853 = settings: ATCC 27853
Method in brief: as §1

A. baumannii GN_093 PmxR = settings: GN 093 PmxR
Method in brief: as §1

[4] = test system: P. aeruginosa GN_043, PmxR
Method in brief: as §1

[5] = test system: K. pneumoniae GN_106, PmxR; settings: GN 106, PmxR
Method in brief: as §1

[6] = test system: K. pneumoniae GN_102 PmxR; settings: GN 102 PmxR
Method in brief: as §1

[7] = test system: S. aureus ATCC 25923, MSSA; settings: ATCC 25923
Method in brief: as §1

[8] = test system: P. aeruginosa GN_105, PmxR; settings: GN 105, PmxR
Method in brief: as §1

E. coli ATCC 25922 = settings: ATCC 25922
Method in brief: as §1

[9] = test system: K. pneumoniae ATCC BAA-2146, NDM-1 pos; settings: ATCC BAA-2146
Method in brief: as §1

[10] = test system: K. pneumoniae ATCC 700603, MDR; settings: ATCC 700603
Method in brief: as §1

A. baumannii ATCC 19606 = settings: ATCC 19606
Method in brief: as §1

Compound	CC50 at 24 h (in vitro [1]) [µM]	CC50 at 24 h (in vitro [2]) [µM]	CC50 at 24 h (in vitro [3]) [µM]	MIC K. pneumoniae ATCC 13883 (K. pneumoniae ATCC 13883) [µg/mL]	MIC P. aeruginosa ATCC 27853 (P. aeruginosa ATCC 27853) [µg/mL]	MIC A. baumannii GN_093 PmxR (A. baumannii GN_093 PmxR) [µg/mL]	MIC P. aeruginosa GN_043, PmxR ([4]; P. aeruginosa GN_043, PmxR) [µg/mL]	MIC K. pneumoniae GN_106, PmxR [5] [µg/mL]	MIC K. pneumoniae GN_102 PmxR [6] [µg/mL]	MIC S. aureus ATCC 25923, MSSA [7] [µg/mL]	MIC P. aeruginosa GN_105, PmxR [8] [µg/mL]	MIC E. coli ATCC 25922 (E. coli ATCC 25922) [µg/mL]	MIC K. pneumoniae ATCC BAA-2146, NDM-1 pos [9] [µg/mL]	MIC K. pneumoniae ATCC 700603, MDR [10] [µg/mL]	MIC A. baumannii ATCC 19606 (A. baumannii ATCC 19606) [µg/mL]	other results
CCCCCCC[C@@H](O)CC(=O)N[C@@H](CCN)C(=O)N[C@H]1CCNC(=O)[C@H](CC(C)C)NC(=O)[C@H](CCN)NC(=O)[C@H](CCN)NC(=O)[C@H](C)NC(=O)[C@@H](Cc2ccccc2)NC(=O)[C@H](CCN)NC1=O [compound 5563, 3(R)OH-nC9CO-L-Dab-cyc[L-Dab-L-Dab-D-Phe-L-Ala-L-Dab-L-Dab-L-Leu]] ({Decanoyl(3R-OH)}-[Dab][Dab][Dab][dF]A[Dab][Dab]L; lactam 2-C)	> 300	> 300	158	>32	2 (≈ 2 µM)	>32	>32	32 (≈ 31.9 µM)	32 (≈ 31.9 µM)	>32	32 (≈ 31.9 µM)	32 (≈ 31.9 µM)	16 (≈ 16 µM)	16 (≈ 16 µM)	>32	–
CCCCCCC[C@@H](O)CC(=O)N[C@H](CCN)C(=O)N[C@H]1CCNC(=O)[C@H](CC(C)C)NC(=O)[C@H](CCN)NC(=O)[C@H](CCN)NC(=O)[C@H](CC(C)C)NC(=O)[C@@H](Cc2ccccc2)NC(=O)[C@H](Cc2ccc(N)cc2)NC1=O [compound 8635, 3(R)OH-nC9CO-D-Dab-cyc[L-Dab-L-4NH2Phe-D-Phe-L-Leu-L-Dab-L-Dab-L-Leu]] ({Decanoyl(3R-OH)}-[dDab][Dab][Phe(4-NH2)][dF]L[Dab][Dab]L; lactam 2-C)	> 300	> 300	219	–	–	–	–	–	–	–	–	–	–	–	–	MIC, K. pneumoniae ATCC 13883 (K. pneumoniae ATCC 13883): >32 µg/mL; MIC, P. aeruginosa ATCC 27853 (P. aeruginosa ATCC 27853): 16 µg/mL (≈ 14.5 µM); MIC, A. baumannii Cl Ptyela 10073 4512:2, PmxR (A. baumannii GN_093 PmxR): >32 µg/mL; MIC, P. aeruginosa FADDI-PA070, PmxR ([4]; Table 5, polymyxin-resistant): 16 µg/mL (≈ 14.5 µM); MIC, K. pneumoniae Cl 138-16347-20362, PmxR [5]: >32 µg/mL; MIC, K. pneumoniae Cl Koprana 10065 0661:1, PmxR [6]: >32 µg/mL; MIC, S. Aureus ATCC 25923, MSSA [7]: 32 µg/mL (≈ 28.9 µM); MIC, P. aeruginosa PA9704, PmxR [8]: >32 µg/mL; MIC, E. coli ATCC 25922 (E. coli ATCC 25922): 16 µg/mL (≈ 14.5 µM); MIC, K. pneumoniae ATCC BAA-2146, NDM-1 pos [9]: 16 µg/mL (≈ 14.5 µM); MIC, K. pneumoniae ATCC 700603, MDR [10]: 32 µg/mL (≈ 28.9 µM); MIC, A. baumannii ATCC 19606 (A. baumannii ATCC 19606): >32 µg/mL
CCCCCCC[C@@H](O)CC(=O)N[C@H](CCN)C(=O)N[C@H]1CCNC(=O)[C@H](CC(C)C)NC(=O)[C@H](CCNC(=O)[C@@H](N)CCCNC(=N)N)NC(=O)[C@H](CCN)NC(=O)[C@H](CC(C)C)NC(=O)[C@@H](Cc2ccccc2)NC(=O)[C@H](CCN)NC1=O [compound 6653, 3(R)OH-nC9CO-D-Dab-cyc[L-Dab-L-Dab-D-Phe-L-Leu-L-Dab-L-Dab(L-Arg)-L-Leu]] ({Decanoyl(3R-OH)}-[dDab][Dab][Dab][dF]L[Dab][Dab](Arg)L; lactam 2-C)	> 300	> 300	64	8 (≈ 6.66 µM)	4 (≈ 3.33 µM)	16 (≈ 13.3 µM)	–	16 (≈ 13.3 µM)	>32	32 (≈ 26.7 µM)	4 (≈ 3.33 µM)	16 (≈ 13.3 µM)	8 (≈ 6.66 µM)	8 (≈ 6.66 µM)	4 (≈ 3.33 µM)	MIC P. aeruginosa GN_043, PmxR ([4]; polymyxin-resistant): 2 µg/mL (≈ 1.67 µM)
CCCCCCCN1CCC(C(=O)N[C@H](CCN)C(=O)N[C@H]2CCNC(=O)[C@H](CC(C)C)NC(=O)[C@H](CCN)NC(=O)[C@H](CCN)NC(=O)[C@H](CC(C)C)NC(=O)[C@@H](Cc3ccccc3)NC(=O)[C@H](CCN)NC2=O)CC1 [compound 6524, 1-heptylpiperidine-4-carboxylic acid-D-Dab-cyc[L-Dab-L-Dab-D-Phe-L-Leu-L-Dab-L-Dab-L-Leu]] (X1-[dDab][Dab][Dab][dF]L[Dab][Dab]L; lactam 2-C)	> 300	> 300	106	>32	1 (≈ 0.923 µM)	>32	–	32 (≈ 29.5 µM)	>32	32 (≈ 29.5 µM)	2 (≈ 1.85 µM)	32 (≈ 29.5 µM)	32 (≈ 29.5 µM)	>32	>32	MIC P. aeruginosa GN_043, PmxR [4]: 0.5 µg/mL (≈ 0.461 µM)
CC(C)C[C@@H]1NC(=O)[C@H](CCN)NC(=O)[C@H](CCN)NC(=O)[C@H](Cc2ccccc2)NC(=O)[C@@H](CC(C)C)NC(=O)[C@H](CCN)NC(=O)[C@@H](NC(=O)[C@@H](CCN)NC(=O)c2ccnc(-c3ccccc3)c2)CCNC1=O [compound 6517, 3Phe4-PyCO-D-Dab-cyc[L-Dab-L-Dab-D-Leu-L-Phe-L-Dab-L-Dab-L-Leu]] ({Isonicotinoyl(2-Ph)}-[dDab][Dab][Dab][dL]F[Dab][Dab]L; lactam 2-C)	> 300	> 300	> 300	32 (≈ 30.3 µM)	2 (≈ 1.9 µM)	>32	1 (≈ 0.948 µM)	32 (≈ 30.3 µM)	>32	>32	4 (≈ 3.79 µM)	8 (≈ 7.58 µM)	32 (≈ 30.3 µM)	8 (≈ 7.58 µM)	>32	–
CCCCCCC[C@@H](O)CC(=O)N[C@H](CCN)C(=O)N[C@H]1CNC(=O)[C@H](CC(C)C)NC(=O)[C@H](CCN)NC(=O)[C@H](CCN)NC(=O)[C@H](CC(C)C)NC(=O)[C@@H](CC(C)C)NC(=O)[C@H](CCN)NC1=O [compound 633, 3(R)OH-nC9CO-D-Dab-cyc[L-Dap-L-Dab-D-Leu-L-Leu-L-Dab-L-Dab-L-Leu]] ({Decanoyl(3R-OH)}-[dDab][Dap][Dab][dL]L[Dab][Dab]L; lactam 2-C)	> 300	> 300	104	>32	1 (≈ 1 µM)	>32	16 (≈ 16.1 µM)	>32	>32	>32	>32	16 (≈ 16.1 µM)	8 (≈ 8.03 µM)	32 (≈ 32.1 µM)	>32	–
